Experimental data published in US6670391B2, “Benzopyran derivative and antiallergic agent” (Dainippon Ink and Chemicals, Inc., priority 2001, dated 2003).
Where two headings read alike, the source gives them in different places.

System: male Hartley guinea pigs actively sensitized with egg-white albumin
Assay: Antiallergic Test due to Antigen-Induced Immediate Type Airway Reaction and Delayed Type Airway Reaction
Type: in vivo
Details: Cavia porcellus, po, 10 mg/kg orally once one hour before induction (prednisolone 10 mg/kg orally twice, 16 hours and 2 hours before)
Experimental: Using an ultrasonic nebulizer (NE-U12, manufactured by OMRON Corporation), male Hartley guinea pigs (aged six weeks) were actively sensitized by consecutive 8-day inhalation of a 1 wt % physiological saline of egg-white albumin for 10 minutes a day. After one week passed since the final sensitization, an asthmatic disease state was induced by inhalation of a 2 wt % physiological saline of egg-white albumin for 5 minutes in the same manner. To inhibit the synthesis of endogenous steroid, metyrapone (10 mg/kg) was intravenously administered at 24 hours and one hour before the induction. To inhibit anaphylactic shock, pyrilamine (10 mg/kg) was intraperitoneally administered 30 minutes before inducing the asthmatic reaction.
After inducing the asthmatic reaction, the airway resistance (specific airway resistance Raw) was measured for 1 minute before inducing the asthmatic reaction, and 1 minute, 2 hours, 4 hours, 5 hours, 6 hours, 7 hours, 8 hours, and 23-24 hours after inducing the asthmatic reaction, using an airway resistance measuring apparatus (Pulmos-I, manufactured by M.I.P.S.). An average value of the airway resistance was determined, and an airway resistance increase ratio with respect to the value of the airway resistance before the induction was calculated by the following Equation 1.
Each of the test substances (10 mg/kg) listed in Table 1 was suspended in an aqueous 0.5% methyl cellulose solution, and the suspension was orally administered once one hour before inducing the asthmatic reaction. A positive control substance (prednisolone) was orally administered twice at a dosage of 10 mg/kg 16 hours and 2 hours before inducing the asthmatic reaction. The test was carried out on 8 animals per group.
According to this test procedure, a two-phase increase in airway resistance was observed immediately after inducing the asthmatic reaction and after 4-8 hours passed since inducing the asthmatic reaction. In the present invention, the former increase in airway resistance is referred to as the immediate type asthmatic reaction, while the latter increase in airway resistance is referred to as the delayed type asthmatic reaction. With respect to the evaluation of the drug, for the immediate type asthmatic reaction, the inhibition percentage with respect to the asthmatic reaction inhibiting medium administration group (referring to the group wherein a test drug is not administered after inducing the asthmatic reaction, hereinafter merely referred to as the “medium administration group”) was determined by Equation 2 using the airway resistance increase ratio after one minute gas passed since the induction as an index.
For the delayed type asthmatic reaction, the inhibition percentage with respect to the medium administration group was determined by the following Equation 3 using the area under the curve (AUC4-8) of the airway resistance increase ratio up to 4-8 hours after inducing the asthmatic reaction as an index. As an example, the relationship between the airway resistance increase ratio up to 4-8 hours after inducing the asthmatic reaction of the delayed type asthmatic reaction and time in the medium administration group, the prednisolone administration group, and the compound (216) administration group is shown in FIG. 1. As used herein, the area under the curve showing the relationship between the airway resistance increase ratio and time is (AUC4-8)
Airway resistance increase ratio (%)=(airway resistance after inducing the asthmatic airway resistance−airway resistance before inducing the asthmatic reaction)/(airway resistance before inducing the asthmatic reaction)×100
Inhibition (%)=(1−airway resistance increase ratio after one minute has passed since inducing the asthmatic reaction of the test substance administration group/airway resistance increase ratio after one minute has passed since inducing the asthmatic reaction of the medium administration group)×100 […]

[1] = 1 min, airway resistance increase ratio one minute after induction vs medium administration group, read-out: Inhibition (%) against immediate type allergy
[2] = AUC4-8 of airway resistance increase ratio 4-8 hours after induction vs medium administration group, read-out: Inhibition (%) against delayed type allergy

Compound	inhibition in vivo at 10 mg/kg [1] [%]	inhibition in vivo at 10 mg/kg [2] [%]
CCCCCCCCOc1c(O)c2cccc(OCCC(=O)O)c2oc1=O [Compound (390), 3-octyloxy-4-hydroxy-8-(2-hydroxycarbonylethoxy)-2H-1-benzopyran-2-one]	29.7	61.1
C[C@]12C=CC(=O)C=C1CC[C@@H]1[C@@H]2[C@@H](O)C[C@@]2(C)[C@H]1CC[C@]2(O)C(=O)CO [Prednisolone, prednisolone, reference compound]	29	51.4
